Data from ChEMBL document CHEMBL1201862, “PubChem BioAssay data set” (2004).
The source made the active and inactive calls.

How the values were obtained:
Hexokinase = Hexokinase (Trypanosoma brucei, UniProt Q38C41); experiment: Confirmation assay for inhibitors of Trypanosoma brucei hexokinase 1-Analogue-first series. [Related pubchem assays (depositor defined):AID1430, AID1632, AID2516, AID2560, AID2579, AID2600, AID449725, AID492951]; assay type: functional
[1] = molecular target: Alkaline phosphatase, placental type (Homo sapiens, UniProt P05187); experiment: PLAP enzyme inhibitors, confirmation, biochemical, luminescence (AID 1512); assay type: functional
Chain of Alkaline phosphatase, placental type (P05187 whole entry): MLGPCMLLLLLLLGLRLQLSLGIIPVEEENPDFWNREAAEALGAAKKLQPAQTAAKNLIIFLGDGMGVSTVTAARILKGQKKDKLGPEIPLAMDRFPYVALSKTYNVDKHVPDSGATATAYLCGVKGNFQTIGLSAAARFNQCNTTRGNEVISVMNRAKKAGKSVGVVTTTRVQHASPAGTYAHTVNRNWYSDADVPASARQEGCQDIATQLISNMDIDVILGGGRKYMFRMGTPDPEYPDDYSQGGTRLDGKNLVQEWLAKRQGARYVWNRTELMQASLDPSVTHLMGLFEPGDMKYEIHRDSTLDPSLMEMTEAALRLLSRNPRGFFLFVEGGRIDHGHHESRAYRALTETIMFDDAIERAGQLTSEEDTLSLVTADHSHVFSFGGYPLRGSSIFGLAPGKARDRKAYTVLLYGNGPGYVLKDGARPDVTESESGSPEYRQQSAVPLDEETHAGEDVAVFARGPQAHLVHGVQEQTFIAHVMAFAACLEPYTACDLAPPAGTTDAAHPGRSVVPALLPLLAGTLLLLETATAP

[2] = molecular target: Glyceraldehyde-3-phosphate dehydrogenase (Homo sapiens, UniProt P04406)
Chain of Glyceraldehyde-3-phosphate dehydrogenase (P04406 whole entry): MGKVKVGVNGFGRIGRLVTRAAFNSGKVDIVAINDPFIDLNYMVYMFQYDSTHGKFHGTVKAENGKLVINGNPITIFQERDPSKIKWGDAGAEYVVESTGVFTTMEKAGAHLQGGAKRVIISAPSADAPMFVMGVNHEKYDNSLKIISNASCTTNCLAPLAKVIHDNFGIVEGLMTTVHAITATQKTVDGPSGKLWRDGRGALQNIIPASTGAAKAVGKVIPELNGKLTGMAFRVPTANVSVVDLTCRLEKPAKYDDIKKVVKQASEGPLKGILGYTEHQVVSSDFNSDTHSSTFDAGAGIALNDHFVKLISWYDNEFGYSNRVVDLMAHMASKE

[3] = molecular target: Eukaryotic translation initiation factor 4H (Homo sapiens, UniProt Q15056); experiment: eIF4H inhibition in translation initiation, SAR follow-up (AID 435011); assay type: functional
[4] = molecular target: Polyadenylate-binding protein 1 (Homo sapiens, UniProt P11940); experiment: PABP inhibition in translation initiation, SAR follow-up (AID 435018); assay type: functional
Chain of Polyadenylate-binding protein 1 (P11940 whole entry): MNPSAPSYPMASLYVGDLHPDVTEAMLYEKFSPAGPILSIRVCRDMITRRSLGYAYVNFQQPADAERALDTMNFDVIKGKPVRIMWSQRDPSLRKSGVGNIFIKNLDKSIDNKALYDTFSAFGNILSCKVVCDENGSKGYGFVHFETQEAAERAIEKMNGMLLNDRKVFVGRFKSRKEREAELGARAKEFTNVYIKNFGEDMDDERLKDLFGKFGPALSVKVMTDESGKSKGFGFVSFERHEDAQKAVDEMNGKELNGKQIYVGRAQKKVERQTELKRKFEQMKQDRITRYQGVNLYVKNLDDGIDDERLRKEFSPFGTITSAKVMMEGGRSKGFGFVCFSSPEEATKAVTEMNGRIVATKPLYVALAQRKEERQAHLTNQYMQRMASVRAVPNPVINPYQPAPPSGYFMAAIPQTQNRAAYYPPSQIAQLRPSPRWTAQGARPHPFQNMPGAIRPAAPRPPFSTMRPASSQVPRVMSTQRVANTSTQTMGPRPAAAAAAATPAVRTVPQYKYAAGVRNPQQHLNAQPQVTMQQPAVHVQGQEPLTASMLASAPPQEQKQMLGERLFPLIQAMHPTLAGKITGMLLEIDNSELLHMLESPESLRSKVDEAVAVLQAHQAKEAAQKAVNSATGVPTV

[5] = SV40 cytopathic effect inhibition and cytotoxicity, confirmation, BSC cells, set 3 (AID 485276); assay type: functional, cell-based
CAAX prenyl protease 2 = CAAX prenyl protease 2 (Saccharomyces cerevisiae S288c, UniProt Q03530); assay type: biochemical
Chain of CAAX prenyl protease 2 (Q03530 whole entry): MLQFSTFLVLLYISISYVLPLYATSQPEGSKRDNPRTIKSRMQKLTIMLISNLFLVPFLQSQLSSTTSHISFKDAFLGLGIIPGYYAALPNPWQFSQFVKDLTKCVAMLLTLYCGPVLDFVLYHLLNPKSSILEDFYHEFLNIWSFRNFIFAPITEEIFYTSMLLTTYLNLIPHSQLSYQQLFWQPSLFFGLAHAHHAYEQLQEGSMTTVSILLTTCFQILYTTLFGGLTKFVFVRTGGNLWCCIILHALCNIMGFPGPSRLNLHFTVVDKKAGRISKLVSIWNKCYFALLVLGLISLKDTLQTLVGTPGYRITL

Trypsin = Trypsin (Sus scrofa, UniProt P00761); experiment: porcine trypsin inhibitors, dose response, selectivity assay for Rce1 protease inhibitor project, biochemical, quenched peptide fluorescence, cherry-pick (AID 488789)
Chain of Trypsin (P00761 whole entry): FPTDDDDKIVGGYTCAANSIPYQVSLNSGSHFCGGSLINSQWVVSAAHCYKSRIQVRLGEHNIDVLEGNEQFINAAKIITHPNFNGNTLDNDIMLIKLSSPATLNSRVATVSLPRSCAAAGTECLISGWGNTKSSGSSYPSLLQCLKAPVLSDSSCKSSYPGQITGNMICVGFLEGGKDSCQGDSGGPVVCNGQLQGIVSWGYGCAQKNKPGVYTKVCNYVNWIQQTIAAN

Chain of Hexokinase (Q38C41 whole entry): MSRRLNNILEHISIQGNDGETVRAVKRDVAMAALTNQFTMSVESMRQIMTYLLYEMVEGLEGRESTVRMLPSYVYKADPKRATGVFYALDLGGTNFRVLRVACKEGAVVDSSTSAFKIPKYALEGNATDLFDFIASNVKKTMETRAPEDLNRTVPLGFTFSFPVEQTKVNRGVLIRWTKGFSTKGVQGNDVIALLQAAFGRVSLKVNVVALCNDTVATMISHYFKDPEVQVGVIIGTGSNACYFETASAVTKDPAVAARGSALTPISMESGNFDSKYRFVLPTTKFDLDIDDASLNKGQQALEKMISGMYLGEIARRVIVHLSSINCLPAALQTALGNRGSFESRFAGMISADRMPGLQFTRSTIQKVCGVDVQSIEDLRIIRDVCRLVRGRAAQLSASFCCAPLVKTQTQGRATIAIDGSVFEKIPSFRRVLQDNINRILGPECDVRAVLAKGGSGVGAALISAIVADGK

In the case of `COc1ccc(C(=O)Nc2cc(OC)ccc2C(=O)O)cc1`, the IC50 (Hexokinase) is reported as > 25 µM (inactive).

For `O=C1c2ccccc2C(=O)N1c1nc(Cc2ccccc2)n[nH]1`, the IC50 [1] was > 100 µM (inactive) and the IC50 [2] was > 100 µM (not active).

With `COc1cc(Cl)c(C)cc1NC(=O)COC(=O)c1ccc(NC(N)=O)cc1` the IC50 [3] was > 100 µM (inactive) and the IC50 [4] was > 100 µM (inactive).

For `CC(C)(c1ccc(O)cc1)c1ccc(O)cc1` [BISPHENOL A], the IC50 [5] was 9.3 µM (active).

With `Cc1ccc(C(=O)c2c3ccc(C(F)(F)F)cc3nn2CCC(N)=O)cc1` the AC50 (CAAX prenyl protease 2) was 3.73 µM (active) and the AC50 (Trypsin) was > 100 µM (inactive).
